In ChEMBL document CHEMBL1146136, “Optimization of 2,4-diaminopyrimidines as GHS-R antagonists: side chain exploration” (Bioorg Med Chem Lett, 2006) one finds inhibition and IC50 data, which are given here for 58 compounds.

Assay [1] concerns the target T1, Dihydrofolate reductase (Homo sapiens) (UniProt P00374).
T1 sequence (whole entry): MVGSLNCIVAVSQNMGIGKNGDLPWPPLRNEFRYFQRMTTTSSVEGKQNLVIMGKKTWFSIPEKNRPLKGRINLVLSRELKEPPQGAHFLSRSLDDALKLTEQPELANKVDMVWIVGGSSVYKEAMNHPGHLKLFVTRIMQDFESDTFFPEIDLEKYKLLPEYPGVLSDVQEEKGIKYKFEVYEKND
Nature of the assay: Inhibition of human DHFR receptor at 1 uM.

Assay [2] concerns the target T2, Growth hormone secretagogue receptor type 1 (Homo sapiens, UniProt Q92847). The assay can be described thus: Inhibition of human GHS receptor by FLIPR. Format: functional.
In assay [3] the target is T1, Dihydrofolate reductase (Homo sapiens). Nature of the assay: Inhibition of human DHFR receptor at 10 uM.
Assay [4] has as its target T2, Growth hormone secretagogue receptor type 1. Nature of the assay: Inhibition of human GHS receptor by binding assay.
Assay [5] concerns the target T1, Dihydrofolate reductase (Homo sapiens). The assay can be described thus: Inhibition of human DHFR receptor at 30 uM.

T2 sequence (Q92847 whole entry): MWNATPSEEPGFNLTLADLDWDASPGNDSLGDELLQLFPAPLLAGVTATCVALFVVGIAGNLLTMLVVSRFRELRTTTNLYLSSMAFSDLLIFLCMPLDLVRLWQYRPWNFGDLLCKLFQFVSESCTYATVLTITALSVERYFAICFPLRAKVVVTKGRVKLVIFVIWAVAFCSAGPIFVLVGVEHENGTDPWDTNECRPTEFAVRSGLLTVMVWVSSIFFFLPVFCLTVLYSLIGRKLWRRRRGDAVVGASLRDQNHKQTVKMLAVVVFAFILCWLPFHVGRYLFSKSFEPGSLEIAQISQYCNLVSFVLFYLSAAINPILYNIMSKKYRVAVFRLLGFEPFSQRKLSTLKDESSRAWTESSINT

`CS(=O)(=O)c1ccc(CNc2ccc(-c3c(N)nc(N)nc3C3CCCCC3)cc2)cc1`: the figures for the inhibition in assay [1] and in assay [3] were 16% and 50%, respectively. In assay [2], this compound yielded an IC50 of 36 nM.
With `CCCCCc1nc(N)nc(N)c1-c1ccc(NCc2ccc(S(C)(=O)=O)cc2)cc1`, the concentration for half-maximal inhibition (IC50) in assay [2] is 211 nM; in assay [4], 19 nM.
On the same counts, the results for `CC(C)c1nc(N)nc(N)c1-c1ccc(NCc2ccc(S(C)(=O)=O)cc2)cc1` are 14 nM and 5.4 nM.
Regarding `CCc1nc(N)nc(N(CC)CC)c1-c1ccc(NCc2ccc(S(C)(=O)=O)cc2)cc1`, the IC50 came to 380 nM in assay [2] and 450 nM in assay [4].
On the same counts, the results for `CS(=O)(=O)c1ccc(CNc2ccc(-c3c(N)nc(N)nc3CNc3ccccc3)cc2)cc1` are 9.1 nM and 5.5 nM.
Taken in the same sequence, the figures for `CS(=O)(=O)c1ccc(CNc2ccc(-c3c(N)nc(N)nc3COCc3ccco3)cc2)cc1` were 9.6 nM and 2.7 nM.
In turn, `CS(=O)(=O)c1ccc(CNc2ccc(-c3c(N)nc(N)nc3C3Cc4ccccc4O3)cc2)cc1` (stereo not given) registered an IC50 in assay [2] of 38 nM.
With `CS(=O)(=O)c1ccc(CNc2ccc(-c3c(N)nc(N)nc3[C@@H]3CCCO3)cc2)cc1`, the concentration for half-maximal inhibition (IC50) in assay [2] is 54 nM. The results for the inhibition in assay [5] and in assay [3] were 38% and 25%, respectively.
Take `CCc1nc(N)nc(N(C)C)c1-c1ccc(NCc2ccc(S(C)(=O)=O)cc2)cc1`: the IC50 in assay [2] came out at 772 nM; in assay [4], 192 nM.
Taken in the same sequence, the figures for `CS(=O)(=O)c1ccc(CNc2ccc(-c3c(N)nc(N)nc3CNCC3CCCC3)cc2)cc1` were 316 nM and 16 nM.
Consider `CCc1nc(N)nc(N)c1-c1ccc(NCc2ccc(S(C)(=O)=O)cc2)cc1`, for which the inhibition in assay [1] and in assay [3] was above 99% each time. Moreover, the IC50 worked out at 37 nM in assay [2] and 9.7 nM in assay [4].
`CC(C)=CCOCc1nc(N)nc(N)c1-c1ccc(NCc2ccc(S(C)(=O)=O)cc2)cc1`: the IC50 in assay [2] worked out at 1.9 nM; in assay [4], 0.4 nM.
Consider `CCc1nc(N)nc(NCCO)c1-c1ccc(NCc2ccc(S(C)(=O)=O)cc2)cc1`, for which the concentration for half-maximal inhibition (IC50) in assay [2] was determined as 3080 nM; in assay [4] it was 354 nM.
With `CS(=O)(=O)c1ccc(CNc2ccc(-c3c(N)nc(N)nc3CNc3ccc(F)cc3)cc2)cc1`, the IC50 stood at 12 nM in assay [2] and 1.5 nM in assay [4].
For the compound `CS(=O)(=O)c1ccc(CNc2ccc(-c3c(N)nc(N)nc3CN3Cc4ccccc4C3)cc2)cc1`, 34 nM corresponded to half-maximal inhibition in assay [2] (IC50).
As to `CCc1nc(N)nc(NCc2ccccc2)c1-c1ccc(NCc2ccc(S(C)(=O)=O)cc2)cc1`, the IC50 in assay [2] stood at 354 nM; in assay [4] it was 248 nM.
Take `CS(=O)(=O)c1ccc(CNc2ccc(-c3c(N)nc(N)nc3CNC3CCCC3)cc2)cc1`: the 50% inhibitory concentration (IC50) in assay [2] was 3430 nM; in assay [4], 122 nM.
For the compound `CS(=O)(=O)c1ccc(CNc2ccc(-c3c(N)nc(N)nc3CNCc3ccccc3)cc2)cc1`, the IC50 in assay [2] was found to be 49 nM; in assay [4], 96 nM.
`CCc1nc(N)nc(NCC(C)C)c1-c1ccc(NCc2ccc(S(C)(=O)=O)cc2)cc1`: the 50% inhibitory concentration (IC50) in assay [2] came out at 2480 nM; in assay [4], 199 nM.
With `CS(=O)(=O)c1ccc(CNc2ccc(-c3c(N)nc(N)nc3COCc3ccccc3)cc2)cc1`, the figures for the half-maximal inhibitory concentration (IC50) in assay [2] and in assay [4] were 7.1 nM and 0.3 nM, respectively.
Turning to `CCc1nc(N)nc(Nc2ccccc2)c1-c1ccc(NCc2ccc(S(C)(=O)=O)cc2)cc1`, the values for the IC50 in assay [2] and in assay [4] were above 10000 nM and 700 nM, respectively.
In assay [2], `CS(=O)(=O)c1ccc(CNc2ccc(-c3c(N)nc(N)nc3CN3CCc4ccccc43)cc2)cc1` displayed an IC50 of 13 nM.
Regarding `CCNc1nc(N)nc(CC)c1-c1ccc(NCc2ccc(S(C)(=O)=O)cc2)cc1`, the half-inhibitory concentration (IC50) in assay [2] was above 10000 nM; in assay [4], 244 nM.
`CNCc1nc(N)nc(N)c1-c1ccc(NCc2ccc(S(C)(=O)=O)cc2)cc1`: the figures for the IC50 in assay [2] and in assay [4] were 1380 nM and 279 nM, respectively.
Consider `CCCCc1nc(N)nc(N)c1-c1ccc(NCc2ccc(S(C)(=O)=O)cc2)cc1`, for which the concentration for half-maximal inhibition (IC50) in assay [2] was 32 nM; in assay [4] it was 11 nM.
For `CCCCCCc1nc(N)nc(N)c1-c1ccc(NCc2ccc(S(C)(=O)=O)cc2)cc1`, the half-inhibitory concentration (IC50) amounted to 62 nM in assay [2] and 6 nM in assay [4].
As to `CCc1nc(N)nc(NC)c1-c1ccc(NCc2ccc(S(C)(=O)=O)cc2)cc1`, the figures for the inhibition in assay [1] and in assay [3] were 41% and 82%, respectively. Moreover, the values for the half-inhibitory concentration (IC50) in assay [2] and in assay [4] were 69 nM and 37 nM, respectively.
On to `CS(=O)(=O)c1ccc(CNc2ccc(-c3c(N)nc(N)nc3C3CCCC3)cc2)cc1`, for which the inhibition in assay [1] came out at 73%; in assay [3] it was 97%. For the same compound, the half-inhibitory concentration (IC50) in assay [2] came to 21 nM.
Compound `CS(=O)(=O)c1ccc(CNc2ccc(-c3c(N)nc(N)nc3C3COc4ccccc4O3)cc2)cc1` (stereo not given) showed a half-maximal inhibitory concentration (IC50) in assay [2] of 180 nM.
With `CS(=O)(=O)c1ccc(CNc2ccc(-c3c(N)nc(N)nc3CNC3CC3)cc2)cc1`, the values for the concentration for half-maximal inhibition (IC50) in assay [2] and in assay [4] were 945 nM and 65 nM, respectively.
In assay [2], `CS(=O)(=O)c1ccc(CNc2ccc(-c3c(N)nc(N)nc3[C@H]3CCCO3)cc2)cc1` displayed a half-inhibitory concentration (IC50) of 57 nM. This compound gave an inhibition in assay [3] of 84%.
Regarding `CN(Cc1nc(N)nc(N)c1-c1ccc(NCc2ccc(S(C)(=O)=O)cc2)cc1)c1ccccc1`, the inhibition in assay [1] is 42%; in assay [3] it was 84%. Moreover, the half-inhibitory concentration (IC50) in assay [2] came out at 9 nM; in assay [4] it was 2.5 nM.
Turning to `CC(C)CCNCc1nc(N)nc(N)c1-c1ccc(NCc2ccc(S(C)(=O)=O)cc2)cc1`, the values for the IC50 in assay [2] and in assay [4] were 1420 nM and 61 nM, respectively.
As to `CCCCCCCCc1nc(N)nc(N)c1-c1ccc(NCc2ccc(S(C)(=O)=O)cc2)cc1`, the IC50 in assay [2] came out at 57 nM; in assay [4], 5.2 nM.
The compound `CS(=O)(=O)c1ccc(CNc2ccc(-c3c(N)nc(N)nc3C3CCC3)cc2)cc1` came in with a 50% inhibitory concentration (IC50) in assay [2] of 14 nM.
In turn, `CS(=O)(=O)c1ccc(CNc2ccc(-c3c(N)nc(N)nc3[C@H]3CC4C=CC3C4)cc2)cc1` (stereo not given in full) yielded a half-maximal inhibitory concentration (IC50) in assay [2] of 66 nM. Moreover, the inhibition in assay [5] was 55%; in assay [3], 38%.
Consider `CC(C)Cc1nc(N)nc(N)c1-c1ccc(NCc2ccc(S(C)(=O)=O)cc2)cc1`, for which the IC50 in assay [2] was determined as 40 nM; in assay [4], 10 nM.
For `CCOC(=O)CCc1nc(N)nc(N)c1-c1ccc(NCc2ccc(S(C)(=O)=O)cc2)cc1`, the half-inhibitory concentration (IC50) in assay [2] was 82 nM.
For `CCc1nc(N)nc(NC2CC2)c1-c1ccc(NCc2ccc(S(C)(=O)=O)cc2)cc1`, the IC50 in assay [2] was above 10000 nM; in assay [4], 601 nM.
As to `CS(=O)(=O)c1ccc(CNc2ccc(-c3c(N)nc(N)nc3[C@@H]3CC4C=CC3C4)cc2)cc1` (stereo not given in full), the half-inhibitory concentration (IC50) in assay [2] came out at 283 nM. For the same compound, the inhibition in assay [3] was determined as 45%.
For `CCc1nc(N)nc(N2CCOCC2)c1-c1ccc(NCc2ccc(S(C)(=O)=O)cc2)cc1`, the concentration for half-maximal inhibition (IC50) in assay [2] is above 10000 nM; in assay [4] it was 3250 nM.
Taken in the same sequence, the figures for `CN(Cc1ccccc1)Cc1nc(N)nc(N)c1-c1ccc(NCc2ccc(S(C)(=O)=O)cc2)cc1` were 69 nM and 4 nM.
As to `CS(=O)(=O)c1ccc(CNc2ccc(-c3c(N)nc(N)nc3CN3CCc4ccccc4C3)cc2)cc1`, the results for the inhibition in assay [1] and in assay [3] were 29% and 58%, respectively. Besides, the IC50 in assay [2] is 41 nM.
With `Cc1cc(C)cc(CNC(=O)CCc2nc(N)nc(N)c2-c2ccc(NCc3ccc(S(C)(=O)=O)cc3)cc2)c1`, the values for the inhibition in assay [1] and in assay [3] were 82% and 93%, respectively. The values for the concentration for half-maximal inhibition (IC50) in assay [2] and in assay [4] were 3 nM and 0.4 nM, respectively.
Turning to `CS(=O)(=O)c1ccc(CNc2ccc(-c3c(N)nc(N)nc3C3CC4CCC3C4)cc2)cc1` (stereo not given), the inhibition came out at 3% in assay [1] and 21% in assay [3]. For the same compound, in assay [2], the IC50 worked out at 137 nM.
As for `CN(C)Cc1nc(N)nc(N)c1-c1ccc(NCc2ccc(S(C)(=O)=O)cc2)cc1`, the figures for the IC50 in assay [2] and in assay [4] were 2580 nM and 186 nM, respectively.
As for `CC(C)(C)c1nc(N)nc(N)c1-c1ccc(NCc2ccc(S(C)(=O)=O)cc2)cc1`, the inhibition in assay [1] came to 47%; in assay [3] it was 87%. Moreover, the IC50 in assay [2] came out at 11 nM.
In the case of `CCCNc1nc(N)nc(CC)c1-c1ccc(NCc2ccc(S(C)(=O)=O)cc2)cc1`, the results for the IC50 in assay [2] and in assay [4] were 237 nM and 151 nM, respectively.
On the same counts, the results for `CCCCCCCc1nc(N)nc(N)c1-c1ccc(NCc2ccc(S(C)(=O)=O)cc2)cc1` are 38 nM and 6 nM.
`CN(Cc1nc(N)nc(N)c1-c1ccc(NCc2ccc(S(C)(=O)=O)cc2)cc1)c1ccc(F)cc1` showed a concentration for half-maximal inhibition (IC50) in assay [2] of 10 nM.
As for `CS(=O)(=O)c1ccc(CNc2ccc(-c3c(N)nc(N)nc3CN)cc2)cc1`, the half-maximal inhibitory concentration (IC50) was 7160 nM in assay [2] and 634 nM in assay [4].
For `Cc1ccc(COCc2nc(N)nc(N)c2-c2ccc(NCc3ccc(S(C)(=O)=O)cc3)cc2)o1`, the 50% inhibitory concentration (IC50) came to 9.7 nM in assay [2] and 3.4 nM in assay [4].
For the compound `CCCCNc1nc(N)nc(CC)c1-c1ccc(NCc2ccc(S(C)(=O)=O)cc2)cc1`, the IC50 in assay [2] turned out to be 736 nM; in assay [4], 276 nM.
On to `CS(=O)(=O)c1ccc(CNc2ccc(-c3c(N)nc(N)nc3C3CC3)cc2)cc1`, for which, in assay [2], the half-maximal inhibitory concentration (IC50) came to 19 nM.
On to `CS(=O)(=O)c1ccc(CNc2ccc(-c3c(N)nc(N)nc3COCc3cccnc3)cc2)cc1`, for which the values for the IC50 in assay [2] and in assay [4] were 187 nM and 38 nM, respectively.
With `CC(C)CCOCc1nc(N)nc(N)c1-c1ccc(NCc2ccc(S(C)(=O)=O)cc2)cc1`, the figures for the inhibition in assay [1] and in assay [3] were 88% and 97%, respectively. The IC50 in assay [2] worked out at 6.8 nM; in assay [4], 2.8 nM.
On to `COCc1nc(N)nc(N)c1-c1ccc(NCc2ccc(S(C)(=O)=O)cc2)cc1`, for which the 50% inhibitory concentration (IC50) in assay [2] turned out to be 53 nM; in assay [4], 7.5 nM.
As to `CS(=O)(=O)c1ccc(CNc2ccc(-c3c(N)nc(N)nc3CCC(=O)NCc3cccc(Cl)c3)cc2)cc1`, the IC50 in assay [2] was determined as 5.4 nM; in assay [4], 2 nM.
